Experimental data as given in patent publication US5834461A, “Tricyclic benzazepine vasopressin antagonists” (American Cyanamid Company, priority 1997, dated 1998).

Legend:
[1] = target: T1, vasopressin V1 receptor subtype in human platelet membranes (Homo sapiens, UniProt P37288); assay: Binding to Vasopressin V1 Receptor Subtype in Human Platelet Membranes; conditions: for IC50: human platelet V1 (*)
T1 construct: tissue Hudson Valley Blood Services; host or cells: human blood platelets (frozen platelet rich plasma)
T1 sequence (P37288 whole entry): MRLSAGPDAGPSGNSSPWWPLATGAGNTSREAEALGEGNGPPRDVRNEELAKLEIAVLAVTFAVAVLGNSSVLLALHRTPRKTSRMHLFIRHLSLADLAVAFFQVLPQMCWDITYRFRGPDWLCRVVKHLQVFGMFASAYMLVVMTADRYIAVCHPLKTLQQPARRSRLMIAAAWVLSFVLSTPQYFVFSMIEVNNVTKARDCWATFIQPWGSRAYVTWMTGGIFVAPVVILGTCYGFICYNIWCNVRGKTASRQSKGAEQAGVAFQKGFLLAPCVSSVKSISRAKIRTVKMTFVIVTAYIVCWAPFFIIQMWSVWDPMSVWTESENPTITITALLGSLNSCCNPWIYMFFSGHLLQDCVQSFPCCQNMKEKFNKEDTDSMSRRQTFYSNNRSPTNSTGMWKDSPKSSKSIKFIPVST
Method: (a) Platelet Membrane Preparation:
Frozen platelet rich plasma (PRP), received from the Hudson Valley Blood Services, are thawed to room temperature. (Platelet Source: Hudson Valley Blood Services, Westchester Medical Center, Valhalla, N.Y.). The tubes containing the PRP are centrifuged at 16,000×g for 10 min. at 4° C. and the supernatant fluid discarded. The platelets resuspended in an equal volume of 50.0 mM Tris.HCl, pH 7.5 containing 120 mM NaCl and 20.0 mM EDTA. The suspension is recentrifuged at 16,000×g for 10 min. This washing step is repeated one more time. The wash discarded and the lysed pellets homogenized in low ionic strength buffer of Tris.HCl, 5.0 mM, pH 7.5 containing 5.0 mM EDTA. The homogenate is centrifuged at 39,000×g for 10 min. The resulting pellet is resuspended in Tris.HCl buffer, 70.0 mM, pH 7.5 and recentrifuged at 39,000×g for 10 min. The final pellet is resuspended in 50.0 mM Tris.HCl buffer pH 7.4 containing 120 mM NaCl and 5.0 mM KCl to give 1.0-2.0 mg protein per ml of suspension.
(b) Binding to Vasopressin V1 Receptor Subtype in Human Platelet Membranes:
In wells of a 96 well format microtiter plate, add 100 μl of 50.0 mM Tris.HCl buffer containing 0.2% BSA and a mixture of protease inhibitors (aprotinin, leupeptin etc.). Then add 20 μl of [^3 H]Ligand (Manning or Arg^8 Vasopressin), to give final concentrations ranging from 0.01 to 10.0 nM. Initiate the binding by adding 80.0 μl of platelet suspension (approx. 100 μg protein). Mix all reagents by pipetting the mixture up and down a few times. Non specific binding is measured in the presence of 1.0 μM of unlabeled ligand (Manning or Arg^8 Vasopressin). Let the mixture stand undisturbed at room temperature for ninety (90) min. Upon this time, rapidly filter off the incubate under vacuum suction over GF/B filters, using a Brandel Harvester. The radioactivity caught on the filter disks is determined by the addition of liquid scintillant and counting in a liquid scintillator.

[2] = target: T2, human V2 vasopressin receptor (Homo sapiens, UniProt P30518); assay: Binding to Membranes of Mouse Fibroblast Cell Line (LV-2) Transfected with the cDNA Expressing the Human V2 Vasopressin Receptor; conditions: LV-2 cells
T2 construct: expressed in transfected cells; host or cells: mouse fibroblast cell line LV-2
T2 sequence (P30518 whole entry): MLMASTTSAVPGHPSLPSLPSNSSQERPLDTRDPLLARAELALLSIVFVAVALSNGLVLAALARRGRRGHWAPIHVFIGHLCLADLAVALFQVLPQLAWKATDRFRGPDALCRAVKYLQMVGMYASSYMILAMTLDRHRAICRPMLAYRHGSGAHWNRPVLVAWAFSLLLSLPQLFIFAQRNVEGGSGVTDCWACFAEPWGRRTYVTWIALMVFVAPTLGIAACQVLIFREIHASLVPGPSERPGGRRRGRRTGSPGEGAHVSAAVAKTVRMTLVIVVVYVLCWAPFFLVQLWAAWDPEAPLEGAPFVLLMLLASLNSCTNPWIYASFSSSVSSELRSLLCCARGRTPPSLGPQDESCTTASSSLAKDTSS
Method: Flasks of 175 ml capacity, containing attached cells grown to confluence, are cleared of culture medium by aspiration. The flasks containing the attached cells are rinsed with 2×5 ml of phosphate buffered saline (PBS) and the liquid aspirated off each time. Finally, 5 ml of an enzyme free dissociation Hank's based solution (Specialty Media, Inc., Lafayette, N.J.) is added and the flasks are left undisturbed for 2 min. The content of all flasks is poured into a centrifuge tube and the cells pelleted at 300×g for 15 min. The Hank's based solution is aspirated off and the cells homogenized with a polytron at setting #6 for 10 sec in 10.0 mM Tris.HCl buffer, pH 7.4 containing 0.25M sucrose and 1.0 mM EDTA. The homogenate is centrifuged at 1500×g for 10 min to remove ghost membranes. The supernatant fluid is centrifuged at 100,000×g for 60 min to pellet the receptor protein. Upon completion, the pellet is resuspended in a small volume of 50.0 mM Tris.HCl buffer, pH 7.4. The protein content is determined by the Lowry method and the receptor membranes are suspended in 50.0 mM Tris.HCl buffer containing 0.1 mM phenylmethylsulfonylfluoride (PMSF) and 0.2% bovine serum albumin (BSA) to give 2.5 mg receptor protein per ml of suspension.
For binding experiments, the following is added in μl volume to wells of a 96 well format of a microtiter plate: 100.0 μl of 100.0 mM Tris.HCl buffer containing 0.2% heat inactivated BSA, 10.0 mM MgCl2 and a mixture of protease inhibitors: leupeptin, 1.0 mg %; aprotinin, 1.0 mg %; 1,10-phenanthroline, 2.0 mg %; trypsin inhibitor, 10.0 mg % and 0.1 mM PMSF., 20.0 μl of [^3 H] Arginine^8, vasopressin (S.A. 75.0 Ci/mmole) at 0.8 nM and the reaction initiated by the addition of 80.0 μl of tissue membranes ([…]).
The plates are left undisturbed on the bench top for 120 min to reach equilibrium. Non specific binding is assessed in the presence of 1.0 μM of unlabeled ligand, added in 20 μl volume. For test compounds, these are solubilized in 50% dimethylsulfoxide (DMSO) and added in 20.0 μl volume to a final incubation volume of 200 μl. Upon completion of binding, the content of each well is filtered off, using a Brandel® cell Harvester (Gaithersburg, Md.). The radioactivity trapped on the filter disk by the ligand-receptor complex is assessed by liquid scintillation counting in a Packard LS Counter, with an efficiency of 65% for tritium.

IC50 [1] [nM] | IC50 [2] [nM] | inhibition at 10 µM ([1]; 1.5 h, 10 μM, human platelet (*), read-out: *V1, % at concentration in brackets) [%] | Compound
21 | 16 | – | COc1cc(C(=O)N2Cc3ccccc3Cc3ccccc32)ccc1NC(=O)c1cc(F)ccc1C [Example 261, N-[4-[(6,11-Dihydro-5H-dibenz[b,e]azepin-5-yl)-carbonyl]-2-methoxyphenyl]-2-methyl-5-fluorobenzamide]
250 | 100 | – | Cc1nc2c(s1)CCN(C(=O)c1ccc(NC(=O)c3ccc(Cl)cc3Cl)cc1)c1ccccc1-2 [Example 455, N-[4-(4,5-Dihydro-2-methyl-6H-thiazolo[5,4-d][1]-benzazepin-6-yl)carbonyl1phenyl]-2,4-dichlorobenzamide]
90 | 73 | – | Cc1nc2c(s1)CCN(C(=O)c1ccc(NC(=O)c3cc(F)ccc3C)cc1)c1ccccc1-2 [Example 534]
150 | 2.2 | – | Cc1ccc(F)cc1C(=O)Nc1ccc(C(=O)N2CCc3c[nH]nc3-c3ccccc32)c(Cl)c1 [Example 581]
28 | – | – | Cc1ccc(F)cc1C(=O)Nc1ccc(C(=O)N2CCc3c[nH]nc3-c3ccccc32)cc1 [Example 584, N-[4-[(4.5-Dihydropyrazolo[4,3-d][1]benzazepin-6(2H)-yl)carbonyl]phenyl]-5-fluoro-2-methylbenzamide]

More lines, now with the values behind:

Compound | IC50 [1] [nM] | IC50 [2] [nM] | inhibition at 10 µM ([1]; 1.5 h, 10 μM, human platelet (*), read-out: *V1, % at concentration in brackets) [%]
COc1cc(C(=O)N2Cc3ccccc3Cc3ccccc32)ccc1NC(=O)c1ccccc1C [Example 257, N-[4-[(6,11-Dihydro-5H-dibenz[b,e]azepin-5-yl)-carbonyl]-2-methoxyphenyl]-2-methylbenzamide] | 16 | 20 | –
Cc1c(F)cccc1C(=O)Nc1ccc(C(=O)N2Cc3ccccc3Cc3ccccc32)cc1Cl [Example 262, N-[4-[(6,11-Dihydro-5H-dibenz[b,e]azepin-5-yl)-carbonyl]-2-chlorophenyl]-2-methyl-3-fluorobenzamide] | 620 | 250 | –
COc1cc(C(=O)N2Cc3ccccc3Cc3ccccc32)ccc1NC(=O)c1ccc(Cl)cc1Cl [Example 263, N-[4-[(6,11-Dihydro-5H-dibenz[b,e]azepin-5-yl)-carbonyl]-2-methoxyphenyl]-2,4-dichlorobenzamide] | 430 | 47 | –
CC(C)COc1ccc([N+](=O)[O-])cc1C(=O)Nc1ccc(C(=O)N2Cc3ccccc3Cc3ccccc32)cc1 [Example 453] | – | – | 14
